{
  "source": "patent US20240122930A1",
  "about": "“INTEGRIN INHIBITORS AND USES THEREOF IN COMBINATION WITH OTHER AGENTS” (Pliant Therapeutics, Inc., priority 2022, published 2024)",
  "key": {"[1]": {"test_system": "lung Col1a1 expression", "assay": "Precision cut lung slices, chronic bleomycin exposure, versus and with nintedanib and pirfenidone", "type": "cell-based, mice (C57BL/6)", "settings": "chronic bleomycin PCLS; for lung slice Col1a1 expression vs DMSO vehicle control slices: 7 days", "method": "Mice (C57BL/6) were administered 3 U/kg of bleomycin (Teva Pharmaceuticals; North Wales, PA) on Day 0 and 1 U/kg of bleomycin on days 14, 28, 42 and 56 via oropharyngeal aspiration while under anesthesia. At day 70, 14 days following the final bleomycin insult, precision cut lung slices were obtained. […] The lobes were then subjected to precision slicing to obtain samples for culture using a microtome (Compresstome VF-300-OZ, Precisionary; Greenville, NC). Individual slices were distributed in a multiwell culture plate and cultured for 7 days under control (DMSO) and test compound conditions. The viability of the slices over the course of culturing was confirmed by WST-1 assay of mitochondrial activity. During the culture period, slices in the control group were treated with DMSO and slices in the test group were treated with a DMSO solution of one of: […]"}, "[2]": {"test_system": "participants with idiopathic pulmonary fibrosis (IPF)", "assay": "Phase 2a clinical trial ([…]-IPF): Forced Vital Capacity (FVC) spirometry", "type": "in vivo, human", "method": "Study Design and Objectives. […] At Day 1, baseline values were collected.\nData shown from left to right is participants treatment with 40 mg Compound 5, 80 mg Compound 5, 160 mg Compound 5, all participants treated with Compound 5, and participants treated with Placebo. Change from baseline was analyzed using a mixed model for repeated measures with terms for treatment group, SOC (Y/N), visit, baseline value, and treatment-by-visit interaction. An unstructured covariance (UN) structure was used.\n[…]-IPF study design and objectives.\nThe histograms from left to right are 40 mg (n=22) with a LS Mean (SE) change from Baseline in FVC (mL) at Week 12 of −48.6, 80 mg (n=23) with a LS Mean (SE) change from Baseline in FVC (mL) at Week 12 of 22.8, 160 mg (n=22) with a LS Mean (SE) change from Baseline in FVC (mL) at Week 12 of −28.7, 320 mg (n=21) with a LS Mean (SE) change from Baseline in FVC (mL) at Week 12 of 26.8, and placebo (n=31) with a LS Mean (SE) change from Baseline in FVC (mL) at Week 12 of −64.2. Change from baseline in FVC analyzed using a mixed model for repeated measures (MMRM) with terms for treatment group, use of SOC, week and baseline value. FVC=Forced Vital Capacity. mITT=Modified Intent to Treat. * p<0.05. **p<0.01.\nAt Day 1, baseline values were collected."}, "[3]": {"test_system": "pSMAD2:SMAD2 ratio in BAL", "assay": "pSMAD2:SMAD2 ratio in BAL and plasma Cmax in healthy subjects", "type": "in vivo, human", "method": "(§1) In order to evaluate the change of pSMAD2 as a biomarker of TGF-β activity following administration of an integrin inhibitor, and to determine a therapeutically effective dosage and an effective blood plasma Cmax of the integrin inhibitor, healthy subjects were administered Compound 5, a dual selective αVβ6/αVβ1-integrin inhibitor, and the corresponding Cmax levels and decrease in phosphorylation levels and were determined.\n(§2) Healthy non-smoking adult males without history of lung disease were selected as subjects and were randomized into 4 cohorts. Broncoalevaolar lavage samples were obtained from all subjects 1 day prior to start of treatment. Cohorts 1 and 2 were administered 20 mg of a compound daily, wherein 3 subjects were administered the dual selective αVβ6/αVβ1-integrin inhibitor (Compound 5) per every 1 subject receiving a placebo compound. Cohorts 3 and 4 were administered 40 mg of a compound daily, wherein 3 subjects were administered the dual selective αVβ6/αVβ1-integrin inhibitor (Compound 5) per every 1 subject receiving a placebo compound. BAL samples and blood samples were taken from all subjects on Day −1 (baseline) and on Day 7 (end of treatment)."}, "[4]": {"assay": "pSMAD2:SMAD2 ratio in BAL and plasma Cmax in healthy subjects", "type": "in vivo, human", "settings": "male, human, plasma, 40 mg/day, after the dose on Day 7, subjects of FIG. 8A-8F; read-out: Cmax (peak of the blood plasma concentration)", "method": "as §1, §2"}, "[5]": {"test_system": "PRO-C3, Type III collagen synthesis neoepitope", "assay": "Phase 2a clinical trial: serum biomarker PRO-C3", "type": "in vivo, human", "settings": "IPF participants, 40 to 320 mg, 4 to 24 weeks", "method": "(§3) Blank columns represent 40 mg Compound 5 dosage. Grid pattern filled columns represent 80 mg Compound 5 dosage. Diagonal line filled columns represent 160 mg Compound 5 dosage. Dot filled columns represent all participants dosed with Compound 5. […] In FIG. 21, LS refers to Least Squares and SEM refers to Standard Error of Mean.\n(§4) PRO-C3 and PRO-C6, serum biomarkers of type III and VI collagen synthesis, respectively, were previously shown to be elevated in patients with IPF and associated with progressive disease, according to Respir Res. 2019 Jul. 12; 20(1):148. Doi: 10.1186/s12931-019-1118-7, which is herein incorporated by reference in its entirety. Change from baseline was analyzed using a mixed model for repeated measures with terms for treatment group, visit, baseline value, and treatment-by-visit interaction. LS refers to Least Squares; SE refers to Standard Error.\nMed. 2022 June; 10(6):593-602, which is incorporated herein by reference in its entirety. […] Res. 2019 Jul. 12; 20(1):148, which is incorporated herein by reference in its entirety. ** denotes that p<0.01 vs placebo. LS refers to Least Squares. SE refers to Standard Error. Integrin beta-6 data was reported in relative quantitation log2 scale."}, "[6]": {"assay": "SAD and MAD first-in-human pharmacokinetic studies", "type": "in vivo", "settings": "SAD study, 75 mg oral solution, healthy human subjects; for AUC(0-t): human, po, 75 mg", "method": "Healthy human subjects (N=85) were selected for single ascending dose (SAD) and multiple ascending dose (MAD) first-in-human studies. A solution for oral administration was prepared, containing 10 mg/mL of Compound 5 in a 50:50 mixture of […], Michigan) and sterile water for irrigation. Sufficient solution was administered orally to the subjects to provide between 15 mg/dose and 75 mg/dose of Compound 5 in the SAD study and between 10 mg/dose and 40 mg/dose of Compound 5 in the MAD study. Concentrations of Compound 5 were measured in the subjects by obtaining a sample of plasma from each subject at desired intervals, and subjecting the plasma to liquid chromatography-mass spectrometry-mass spectrometry (LC-MS/MS), with quantification using a calibration curve determined from a range of solutions at standardized concentrations. The lower limit of quantitation (LLOQ) of the assay was 1 ng/mL and the calibration curve range was 1 to 500 ng/mL."}, "[7]": {"test_system": "PRO-C6, Type VI collagen synthesis neoepitope", "assay": "Phase 2a clinical trial: serum biomarker PRO-C6", "type": "in vivo, human", "settings": "IPF participants, 40 to 320 mg, 4 and 12 weeks", "method": "as §3, §4"}, "[8]": {"settings": "40 mg/day, after the dose on Day 7, subjects of FIG. 8A-8F"}},
  "note": "Values joined by “and” are separate entries in the source; they are usually repeats but may differ in a detail not shown here. Identical values can stand only once. “Also recorded” adds a separate entry of the source. Like-named read-outs stand apart in the source and are kept apart here.",
  "data": [
    {"compound": "COCCN(CCCCc1ccc2c(n1)NCCC2)CC[C@H](Nc1ncnc2ccccc12)C(=O)O", "note": "[Compound 5, (S)-4-((2-methoxyethyl) (4-(5,6,7,8-tetrahydro-1,8-naphthyridin-2-yl)butyl)amino)-2-(quinazolin-4-ylamino) butanoic acid]", "values": [
      {"measurement": "lung Col1a1 expression vs DMSO vehicle control slices", "setting": "[1]; 7 days culture, single agents", "value": "substantial, statistically significant (p<0.01 vs vehicle) decrease"},
      {"measurement": "lung slice Col1a1 expression vs DMSO vehicle control slices", "setting": "[1]; in combination with nintedanib", "value": "substantial, statistically significant (p<0.01 vs vehicle) decrease"},
      {"measurement": "lung slice Col1a1 expression vs DMSO vehicle control slices", "setting": "[1]; in combination with pirfenidone", "value": "substantial, statistically significant (p<0.01 vs vehicle) decrease"},
      {"measurement": "LS Mean (SE) change from Baseline in FVC at Week 12, mITT, FIG. 27", "setting": "[2]; 40 mg (n=22), placebo (n=31) −64.2", "value": -48.6, "unit": "mL"},
      {"measurement": "Treatment effect on FVC with and without use of standard-of-care agents", "setting": "[2]; 12 weeks", "value": "evident; also recorded: observed"},
      {"measurement": "Cmax (peak of the blood plasma concentration)", "setting": "[3]; [8]", "value": "700 to 900 ng/mL and < 700 ng/mL"},
      {"measurement": "PD effect (relative change in pSMAD2:SMAD2 ratio from baseline in BAL)", "setting": "[3]; [8]", "value": "sustained PD effect; also recorded: transitory PD effect; also recorded: no PD effect"},
      {"measurement": "correlation of plasma Cmax with reduction of pSMAD2:SMAD2 ratio relative to baseline", "setting": "[3]; 12 h and 24 h post-administration on Day 7", "value": "strongly correlated"},
      {"measurement": "Cmax", "setting": "[4]", "value": "> 900", "unit": "ng/mL"},
      {"measurement": "Serum PRO-C3, change from baseline relative to placebo", "setting": "[5]", "value": "decreased; also recorded: reduced; also recorded: dose-dependent reduction"},
      {"measurement": "Thalf", "setting": "[6]", "value": "20.0 ± 3.6", "unit": "h"},
      {"measurement": "AUC(0-t)", "setting": "[6]; plasma, read-out: AUC0-24", "value": "19700 ± 10900", "unit": "ng·h/mL"},
      {"measurement": "AUC(0-t)", "setting": "[6]; plasma, read-out: AUC0-48", "value": "22500 ± 15700", "unit": "ng·h/mL"},
      {"measurement": "Cmax", "setting": "[6]; plasma", "value": "1870 ± 1240", "unit": "ng/mL"},
      {"measurement": "Tmax", "setting": "[6]; plasma", "value": "2.9 ± 1", "unit": "h"},
      {"measurement": "Serum PRO-C6, change from baseline relative to placebo", "setting": "[7]", "value": "decreased; also recorded: reduced"}
    ]}
  ]
}
